A value given as a limit tells only on which side of the number the result lay.

Test [1] addresses T1, human TDO (TDO-expressing HEK293 cells) (Homo sapiens, UniProt P48775).
T1 construct: expressed in transfected cells
Put plainly: Cell based kynurenine assay, TDO-expressing HEK293 cell clones. To be noted: TDO-expressing HEK293 cells, 24 hours, geometric mean; read-out: HEK293 TDO Kynurenine GMean IC50 (μM) (Cellular Assay). In outline: (§1)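 Steps: seed IDO1- or TDO-expressing HEK293 cells at 2.5×10^4 per well; add compound dilutions; incubate 24 h; transfer supernatant and determine kynurenine; derive IC50 via nonlinear regression of percent inhibition.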

Test [2] has as its target T2, human IDO (IDO1-expressing HEK293 cells) (Homo sapiens, UniProt P14902).
T2 construct: expressed in transfected cells
Kind of test: Cell based kynurenine assay, IDO1-expressing HEK293 cell clones. To be noted: IDO1-expressing HEK293 cells, 24 hours, geometric mean; read-out: HEK293 IDO1 Kynurenine GMean IC50 (μM) (Cellular Assay). In outline: as §1

Test [3] addresses T3, Human Indoleamine 2,3-dioxygenase (IDO) (Homo sapiens, UniProt P14902).
T3 construct: His tag (N); made in house; host or cells: E. coli
Put plainly: Human IDO enzymatic assay (kynurenine level). Type of test: biochemical. To be noted: 6 nM IDO, 10 μM L-Trp; geometric mean; read-out: IDO1 GMean: IC50 (μM) (Biochemical Assay). In a few lines: (§2)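 Kynurenine formed is measured after TCA quench and 50 °C hydrolysis, with % inhibition against full-reaction and no-enzyme controls (5% DMSO). IDO: 6 nM enzyme, 10 μM L-Trp, 5 μM methylene blue, 20 min; TDO: 1 nM, 350 μM L-Trp, 0.4 μM methylene blue, 70 min; both pH 6.5, room temp, E. coli-expressed His-tagged.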

For test [4], the target named is T4, Human Tryptophan 2,3-dioxygenase (TDO) (Homo sapiens, UniProt P48775).
T4 construct: His tag (N); made in house; host or cells: E. coli
Put plainly: Human TDO enzymatic assay (kynurenine level). Type of test: biochemical. The note with it: 1 nM TDO, 350 μM L-Trp; geometric mean; read-out: TDO GMean: IC50 (μM) (Biochemical Assay). In outline:
as §2

T1 sequence (P48775 whole entry): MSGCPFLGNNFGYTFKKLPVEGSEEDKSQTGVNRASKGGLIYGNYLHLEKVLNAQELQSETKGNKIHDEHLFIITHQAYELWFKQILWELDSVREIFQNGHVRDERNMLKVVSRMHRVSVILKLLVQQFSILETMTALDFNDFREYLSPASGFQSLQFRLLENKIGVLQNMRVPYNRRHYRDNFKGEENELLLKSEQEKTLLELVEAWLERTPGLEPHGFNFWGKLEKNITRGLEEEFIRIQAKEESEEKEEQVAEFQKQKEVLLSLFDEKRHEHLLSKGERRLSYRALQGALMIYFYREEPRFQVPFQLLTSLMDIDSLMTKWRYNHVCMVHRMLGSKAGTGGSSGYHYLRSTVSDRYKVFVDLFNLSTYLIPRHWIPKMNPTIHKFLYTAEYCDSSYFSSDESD
T4 sequence (P48775 whole entry): as above
T3 sequence (P14902 whole entry): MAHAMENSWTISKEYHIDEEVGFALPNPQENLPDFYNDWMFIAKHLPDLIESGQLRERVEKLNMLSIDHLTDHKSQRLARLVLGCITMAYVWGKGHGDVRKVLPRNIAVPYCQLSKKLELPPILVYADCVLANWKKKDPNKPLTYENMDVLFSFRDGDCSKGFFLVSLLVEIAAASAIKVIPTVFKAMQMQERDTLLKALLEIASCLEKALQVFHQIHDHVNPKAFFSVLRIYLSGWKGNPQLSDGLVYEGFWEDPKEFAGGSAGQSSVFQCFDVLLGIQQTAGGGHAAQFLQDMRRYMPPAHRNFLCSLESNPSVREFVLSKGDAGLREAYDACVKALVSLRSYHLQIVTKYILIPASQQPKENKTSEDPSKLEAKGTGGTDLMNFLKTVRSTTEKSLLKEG
T2 sequence (P14902 whole entry): as above

As usually defined, the IC50 is the concentration needed to halve the response being measured. Consider `CC(C)(C(O)c1cc(Cl)cc2cn[nH]c12)[C@H]1C[C@H]2CC[C@@H](C1)N2C(=O)NC1CC1` (stereo partly drawn) [Compound P-0439, (1R,3r,5S)-3-(1-(5-chloro-1H-indazol-7-yl)-1-hydroxy-2-methylpropan-2-yl)-N-cyclopropyl-8-azabicyclo [3.2.1]octane-8-carboxamide], for which the IC50 in test [1], in test [2], in test [3] and in test [4] was 0.0001 to 10 µM each time.
On to `CC(C)(C(O)c1cc(Cl)cc2cn[nH]c12)[C@H]1C[C@H]2CC[C@@H](C1)N2C(=O)Nc1ccc(F)cc1` (stereo partly drawn) [Compound P-0440, (1R,3r,5S)-3-(1-(5-chloro-1H-indazol-7-yl)-1-hydroxy-2-methylpropan-2-yl)-N-(4-fluorophenyl)-8-azabicyclo[3.2.1] octane-8-carboxamide], for which the IC50 in test [1], in test [2], in test [3] and in test [4] was 0.0001 to 10 µM in each case.
For `CC(C)(C1CCN(C(=O)CN2CCOCC2)CC1)C(O)c1cc(Cl)cc2cn[nH]c12` (centres unmarked) [Compound P-0441, 1-(4-(1-(5-chloro-1H-indazol-7-yl)-1-hydroxy-2-methylpropan-2-yl)piperidin-1-yl)-2-morpholinoethan-1-one], the IC50 in test [1], in test [2], in test [3] and in test [4] was 0.0001 to 10 µM throughout.
With `CNC(=O)N1[C@@H]2CC[C@H]1C[C@@H](C(C)(C)C(O)c1cc(Cl)cc3cn[nH]c13)C2` (stereo partly drawn) [Compound P-0442, (1R,3r,5S)-3-(1-(5-chloro-1H-indazol-7-yl)-1-hydroxy-2-methylpropan-2-yl)-N-methyl-8-azabicyclo[3.2.1] octane-8-carboxamide], the IC50 in test [1], in test [2], in test [3] and in test [4] was 0.0001 to 10 µM throughout.
With `CC(C)(C1CCN(C(=O)CC2CCOCC2)CC1)C(O)c1cc(Cl)cc2cn[nH]c12` (centres unmarked) [Compound P-0443, 1-(4-(1-(5-chloro-1H-indazol-7-yl)-1-hydroxy-2-methylpropan-2-yl)piperidin-1-yl)-2-(tetrahydro-2H-pyran-4-yl)ethan-1-one], the IC50 in test [1], in test [2], in test [3] and in test [4] was 0.0001 to 10 µM in each case.
Regarding `CCC(=O)N1CCC(C(C)(C)[C@H](O)c2cc(Cl)cc3cn[nH]c23)CC1` [Compound P-0444, (S)-1-(4-(1-(5-chloro-1H-indazol-7-yl)-1-hydroxy-2-methylpropan-2-yl)piperidin-1-yl)propan-l-one], the IC50 in test [1], in test [2], in test [3] and in test [4] was 0.0001 to 10 µM each time.
In the case of `CNC(=O)N1CCC(C(C)(C)[C@H](O)c2cc(Cl)cc3cn[nH]c23)CC1` [Compound P-0445, (S)-4-(1-(5-chloro-1H-indazol-7-yl)-1-hydroxy-2-methylpropan-2-yl)-N-methylpiperidine-1-carboxamide], the IC50 in test [1], in test [2], in test [3] and in test [4] was 0.0001 to 10 µM throughout.
`COCCNC(=O)N1CCC(C(C)(C)[C@H](O)c2cc(Cl)cc3cn[nH]c23)CC1` [Compound P-0446, (S)-4-(1-(5-chloro-1H-indazol-7-yl)-1-hydroxy-2-methylpropan-2-yl)-N-(2-methoxyethyl) piperidine-1-carboxamide]: the IC50 in test [1], in test [2], in test [3] and in test [4] was 0.0001 to 10 µM in each case.
In the case of `CC(C)(C1CCN(C(=O)Nc2ccc(C#N)cc2)CC1)[C@H](O)c1cc(Cl)cc2cn[nH]c12` [Compound P-0447, (S)-4-(1-(5-chloro-1H-indazol-7-yl)-1-hydroxy-2-methylpropan-2-yl)-N-(4-cyanophenyl) piperidine-1-carboxamide], the IC50 in test [1], in test [2], in test [3] and in test [4] was 0.0001 to 10 µM each time.
For the compound `CC(C)(C1CCN(C(=O)CC2CCS(=O)(=O)CC2)CC1)C(O)c1cc(Cl)cc2cn[nH]c12` (stereo not drawn) [Compound P-0448, 1-(4-(1-(5-chloro-1H-indazol-7-yl)-1-hydroxy-2-methylpropan-2-yl)piperidin-l-yl)-2-(1,1-dioxidotetrahydro-2H-thiopyran-4-yl)ethan-1-one], the IC50 in test [1], in test [2], in test [3] and in test [4] was 0.0001 to 10 µM throughout.
On to `CC(C)(C1CCN(C(=O)N[C@H]2CC[C@H](C)CC2)CC1)C(O)c1cc(Cl)cc2cn[nH]c12` (some centres unmarked) [Compound P-0449, 4-(1-(5-chloro-1H-indazol-7-yl)-1-hydroxy-2-methylpropan-2-yl)-N-((1r,4r)-4-methylcyclohexyl) piperidine-1-carboxamide], for which the IC50 in test [1], in test [2], in test [3] and in test [4] was 0.0001 to 10 µM in each case.
For `CC(C)(C1CCN(C(=O)NC2CCN(S(C)(=O)=O)CC2)CC1)C(O)c1cc(Cl)cc2cn[nH]c12` (centres unmarked) [Compound P-0450, 4-(1-(5-chloro-1H-indazol-7-yl)-1-hydroxy-2-methylpropan-2-yl)-N-(1-(methylsulfonyl)piperidin-4-yl)piperidine-1-carboxamide], the IC50 in test [1], in test [2], in test [3] and in test [4] was 0.0001 to 10 µM throughout.
As for `CC(C)(C1CCN(C(=O)NC2CCOCC2)CC1)C(O)c1cc(Cl)cc2cn[nH]c12` (centres unmarked) [Compound P-0451, 4-(1-(5-chloro-1H-indazol-7-yl)-1-hydroxy-2-methylpropan-2-yl)-N-(tetrahydro-2H-pyran-4-yl)piperidine-1-carboxamide], the half-inhibitory concentration (IC50) in test [1], in test [2], in test [3] and in test [4] was 0.0001 to 10 µM in each case.
With `CC(C)(C1CCN(C(=O)NCCS(C)(=O)=O)CC1)C(O)c1cc(Cl)cc2cn[nH]c12` (centres unmarked) [Compound P-0452, 4-(1-(5-chloro-1H-indazol-7-yl)-1-hydroxy-2-methylpropan-2-yl)-N-(2-(methylsulfonyl)ethyl)piperidine-1-carboxamide], the IC50 in test [1], in test [2], in test [3] and in test [4] was 0.0001 to 10 µM throughout.
With `CC(C)(C1CCN(C(=O)NC2CCNCC2)CC1)C(O)c1cc(Cl)cc2cn[nH]c12` (centres unmarked) [Compound P-0453, 4-(1-(5-chloro-1H-indazol-7-yl)-1-hydroxy-2-methylpropan-2-yl)-N-(piperidin-4-yl)piperidine-1-carboxamide], the IC50 is greater than 10 µM in test [1], greater than 10 µM in test [2], 0.0001 to 10 µM in test [3] and 0.0001 to 10 µM in test [4].
With `CC(C)(C1CCN(C(=O)CC#N)CC1)C(O)c1cc(Cl)cc2cn[nH]c12` (centres unmarked) [Compound P-0454, 3-(4-(1-(5-chloro-1H-indazol-7-yl)-1-hydroxy-2-methylpropan-2-yl)piperidin-1-yl)-3-oxopropanenitrile], the IC50 in test [1], in test [2], in test [3] and in test [4] was 0.0001 to 10 µM in each case.
With `CN(C)CC(=O)N1CCC(C(C)(C)C(O)c2cc(Cl)cc3cn[nH]c23)CC1` (centres unmarked) [Compound P-0455, 1-(4-(1-(5-chloro-1H-indazol-7-yl)-1-hydroxy-2-methylpropan-2-yl)piperidin-1-yl)-2-(dimethylamino) ethan-1-one], the IC50 in test [1], in test [2], in test [3] and in test [4] was 0.0001 to 10 µM throughout.
As for `CN(C)CCC(=O)N1CCC(C(C)(C)C(O)c2cc(Cl)cc3cn[nH]c23)CC1` (centres unmarked) [Compound P-0456, 1-(4-(1-(5-chloro-1H-indazol-7-yl)-1-hydroxy-2-methylpropan-2-yl)piperidin-1-yl)-3-(dimethylamino) propan-1-one], the IC50 in test [1], in test [2], in test [3] and in test [4] was 0.0001 to 10 µM throughout.
For the compound `CC1(C(=O)N2CCC(C(C)(C)C(O)c3cc(Cl)cc4cn[nH]c34)CC2)CC1` (centres unmarked) [Compound P-0457, (4-(1-(5-chloro-1H-indazol-7-yl)-1-hydroxy-2-methylpropan-2-yl)piperidin-1-yl)(1-methylcyclopropyl) methanone], the IC50 in test [1], in test [2], in test [3] and in test [4] was 0.0001 to 10 µM in each case.
Turning to `CC(C)(C1CCN(C(=O)C2CCOCC2)CC1)C(O)c1cc(Cl)cc2cn[nH]c12` (centres unmarked) [Compound P-0458, (4-(1-(5-chloro-1H-indazol-7-yl)-1-hydroxy-2-methylpropan-2-yl)piperidin-1-yl)(tetrahydro-2H-pyran-4-yl)methanone], the half-maximal inhibitory concentration (IC50) in test [1], in test [2], in test [3] and in test [4] was 0.0001 to 10 µM throughout.

The record behind these values is patent publication US10508085B2, “Compounds and methods for IDO and TDO modulation, and indications therefor” (Plexxikon Inc., priority 2016, dated 2019).
